# “And” between values parts separate entries of the source, which are not always exact repeats. Equal values may be shown once.
# Experiments:
# [1] = molecular target: T1, type 2 human 5α-reductase (Homo sapiens, UniProt P31213); experiment: Cell-free enzymatic assay of 5α-reductase (testosterone to DHT), type 2; type: biochemical; design: expressed in transfected cells; host or cells: rat 1A cells infected with pMV7 retrovirus and selected with G418; microsomes for the cell-free assay; settings: for inhibition at 100 µM: read-out: percent inhibition of 5α-reductase activity, cell-free assay, Type 2, 100 μM compound; for IC50: microsomes from rat 1A cells expressing human type 2 5α-reductase, read-out: Cell-free assay IC50, 5α-reductase Type 2
# T1 sequence (P31213 1-254): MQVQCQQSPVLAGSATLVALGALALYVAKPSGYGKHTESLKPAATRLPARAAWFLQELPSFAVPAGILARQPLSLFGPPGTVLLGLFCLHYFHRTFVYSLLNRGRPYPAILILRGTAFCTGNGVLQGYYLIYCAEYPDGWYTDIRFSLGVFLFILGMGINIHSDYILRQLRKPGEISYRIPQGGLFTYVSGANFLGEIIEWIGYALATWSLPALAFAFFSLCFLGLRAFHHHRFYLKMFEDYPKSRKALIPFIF
# [2] = molecular target: T2, type 1 human 5α-reductase (Homo sapiens, UniProt P18405); experiment: Cell-free enzymatic assay of 5α-reductase (testosterone to DHT), type 1; settings: for inhibition at 100 µM: read-out: percent inhibition of 5α-reductase activity, cell-free assay, Type 1, 100 μM compound
# T2 sequence (P18405 1-259): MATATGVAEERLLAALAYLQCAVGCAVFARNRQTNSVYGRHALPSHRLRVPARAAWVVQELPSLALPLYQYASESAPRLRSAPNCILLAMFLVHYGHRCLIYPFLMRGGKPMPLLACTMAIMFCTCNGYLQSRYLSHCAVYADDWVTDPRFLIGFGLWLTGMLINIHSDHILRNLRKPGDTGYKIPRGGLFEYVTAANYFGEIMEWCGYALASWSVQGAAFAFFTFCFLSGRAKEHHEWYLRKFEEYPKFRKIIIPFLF
# [3] = molecular target: T1, type 2 human 5α-reductase; experiment: Whole-cell assay of 5α-reductase, type 2; type: cell-based; design: expressed in transfected cells; host or cells: rat 1A cells infected with pMV7 retrovirus and selected with G418; intact cells for the whole-cell assay; settings: for IC50: rat 1A cells expressing human type 2 5α-reductase; for inhibition at 100 µM: read-out: percent inhibition of 5α-reductase activity, whole-cell assay, Type 2, 100 μM compound
# [4] = molecular target: T2, type 1 human 5α-reductase; experiment: Whole-cell assay of 5α-reductase, type 1; type: cell-based; design: expressed in transfected cells; host or cells: rat 1A cells infected with pMV7 retrovirus and selected with G418; microsomes for the cell-free assay, intact cells for the whole-cell assay; settings: for IC50: rat 1A cells expressing human type 1 5α-reductase; for inhibition at 100 µM: read-out: percent inhibition of 5α-reductase activity, whole-cell assay, Type 1
# hamster flank organ [5] = experiment: DHT-stimulated growth of the pigmented macules of hamster flank organs; type: in vivo, Syrian golden hamsters
# Method: Prepubertal male Syrian golden hamsters, castrated at 4 weeks of age, were obtained from Harlan Sprague-Dawley Co. (Madison, Wis.). Bilateral orchiectomy was performed under anesthesia. The hamsters were housed individually in plastic cages and had free access to Purina rodent chow and water, and were maintained on a 12-h light/12-h dark cycle. Hamsters were used 1-2 weeks after castration and were divided into groups of 4-6 or 9-11 animals. Hair on the lower back of each animal was shaved weekly with an electric hair clipper to expose the flank organs. A treatment solution (5 μl with ethanol as vehicle) was applied topically to the flank organ once a day using a Pipetteman and a polypropylene disposable tip. The treatment solution contained either (a) ethanol alone, (b) an androgen (testosterone or DHT), (c) a test compound, or (d) a combination of an androgen and a test compound. For each hamster, one flank organ was treated while the other organ was not treated. The surface of the flank organ was wiped with an alcohol pad to remove residual compound before each treatment. At the end of each experiment (18 days), animals were killed by CO2 asphyxiation or an intraperitoneal injection of […]. Flank organs from both the treated and untreated sides were examined 1 day after the last treatment by the methods described below. The body weight of each animal was recorded before and after treatment. Experiments were repeated at least twice to assure reproducibility. The “Guide for the care and use of laboratory animals” (NIH publication no. 85-28, revised 1988) and the regulations of the U.S. Department of Agriculture were followed throughout the experiments.
# In this study, the growth of the flank organ was determined by measuring the length of the long axis and the short axis of the pigmented spot (pigmented macule) with a caliper with a digital display (Digimatic; Mitutoyo Corporation, Japan). The surface area (in millimeters squared) of the spot was calculated as the product of the long axis and the short axis (Gomez and Frost 1975). The areas of the pigmented spots after treatment with ethanol alone or with test compound (in ethanol) alone were less than 10% of the areas of the pigmented spots after treatment with testosterone alone. These values were deducted from the experimental values and are compared in Tables 8-10. For each experiment, the means and standard error of the means (SEM) of the areas of the untreated and treated macules were computed separately for each treatment group. Within each experiment, an overall F-test (one way ANOVA) was used to test the null hypothesis that the mean sizes of the treated macules were the same in all groups, and Dunnett's multiple range test was used to examine differences between the treatment groups (i.e., green tea catechin+androgen, fatty acid+androgen, EGC derivative+androgen, or fatty acid derivative+androgen) and the control group (androgen treatment only). The Mann-Whitney test was used to examine differences between DHT-treated and the DHT and EGCG-treated groups. P-values <0.05 were taken as indicating statistical significance in all tests (Hochberg and Tamhane 1987).
# Each group comprised four to six castrated male hamsters. At the end of the treatment period, the areas of the pigmented macules were determined and are presented as means±SEM in Table 8.
# Each group comprised four to six castrated male hamsters. At the end of the treatment period, the areas of the pigmented macules were determined and are expressed as means±SEM as shown in Table 10.
# hamster flank organ [6] = experiment: Testosterone-stimulated growth of the pigmented macules of hamster flank organs; type: in vivo, Syrian golden hamsters; settings: 0.5 μg testosterone + 1 mg compound topically daily, 18 days; for Pigmented macule area: castrated male hamsters, mean±SEM;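 on all read-outs here: prepubertal Syrian golden hamsters castrated at 4 weeks, ethanol vehicle on one flank organ, macule long and short axes gauged by caliper 1 day after final dose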
# 5α-reductase = experiment: Cell-free 5α-reductase assay, isozyme not given; type: biochemical, human; settings: isozyme not stated
compound,measurement,setting,value
O=c1c(O)c(-c2ccc(O)cc2O)oc2cc(O)cc(O)c12 [Morin],inhibition at 100 µM,[1],33%
same,inhibition at 100 µM,[2],6%
"CC/C=C\C/C=C\C/C=C\CCCCCCCC(=O)O [Alpha-Linolenic Acid, Alpha-Linolenic Acid C18:3 CIS 9,12,15]",IC50,[1],9 µM
same,inhibition at 100 µM,[1],84%
same,IC50,[3],23 µM
same,inhibition at 100 µM,[3],86%
same,IC50,[2],8 µM
same,inhibition at 100 µM,[2],99%
same,IC50,[4],29 µM
same,inhibition at 100 µM,[4]; 100 μM compound,82%
"C[C@]12CCC(=O)C[C@@H]1CC[C@@H]1[C@@H]2CC[C@]2(C)[C@@H](O)CC[C@@H]12 [DHT, 5α-dihydrotestosterone, reference compound]","Pigmented macule area, androgen alone (control)","hamster flank organ [5]; 0.5 μg DHT alone topically daily, 18 days, mean±SEM",20.80 ± 1.10 mm^2 and 13.67 ± 0.96 mm^2
same,stimulation of flank organ growth relative to the maximum stimulation,hamster flank organ [5]; 0.5 μg DHT per flank organ per day,50-70%
"CCCC/C=C\CCCCCCCC(=O)O[C@@H]1Cc2c(O)cc(O)cc2O[C@@H]1c1cc(O)c(O)c(O)c1 [EGC-myristoleate, EGC-3-myristoleate]",IC50,[3],< 15 µM
same,IC50,[4],< 15 µM
same,Inhibition (percent decrease in macule area vs androgen-treated macules),hamster flank organ [6],71%
same,Pigmented macule area,hamster flank organ [6],5.00 ± 0.42 mm^2
same,Inhibition (percent decrease in macule area vs androgen-treated macules),hamster flank organ [6]; listed as EGC-3 ester of MA,about 70%
O=C1c2ccccc2C(=O)c2c1cc(S(=O)(=O)[O-])c(O)c2O.[Na+] [Alizarin red S],"percent inhibition of 5α-reductase activity, whole-cell assay, Type 1",[4]; 100 μM compound,22%
C[C@@H]1O[C@@H](OC[C@H]2O[C@@H](Oc3c(-c4ccc(O)c(O)c4)oc4cc(O)cc(O)c4c3=O)[C@H](O)[C@@H](O)[C@@H]2O)[C@H](O)[C@H](O)[C@H]1O [Rutin],inhibition at 100 µM,[1],0%
same,inhibition at 100 µM,[2],4%
O=C(/C=C/c1ccc(O)c(O)c1)OCCc1ccccc1 [Caffeic acid phenethyl ester],inhibition at 100 µM,[1],36%
same,inhibition at 100 µM,[3],98%
same,IC50,5α-reductase,25 µM
same,inhibition at 100 µM,[2],97%
same,inhibition at 100 µM,[4]; 100 μM compound,99%
"CCCCC/C=C\C/C=C\C/C=C\CCCCC(=O)O [Gamma-Linolenic Acid, Gamma-Linolenic Acid C18:3 CIS 6.9,12]",Inhibition (percent decrease in macule area vs androgen-treated macules),hamster flank organ [6],82%
same,Pigmented macule area,hamster flank organ [6],3.15 ± 0.42 mm^2
"COc1cc(CCC(=O)CC(=O)CCc2ccc(O)cc2)ccc1O [Demethoxytetrahydrocurcumin, demethoxytetrahydrocurcumin]","percent inhibition of 5α-reductase activity, cell-free assay, Type 1",[2]; 100 μM compound,23%
O=C1c2ccccc2C(=O)c2ccccc21 [Anthraquinone],IC50,5α-reductase,> 100 µM
"COc1cc(/C=C/CO)ccc1O [Coniferol, coniferyl alcohol]",IC50,[1],100 µM
same,inhibition at 100 µM,[1],49%
same,inhibition at 100 µM,[2],10%
O=c1cc(-c2ccccc2)oc2cc(O)cc(O)c12 [Chrysin],inhibition at 100 µM,[1],1%
same,inhibition at 100 µM,[2],2%
COc1cc(/C=C/C(=O)CC(=O)/C=C/c2ccc(O)c(OC)c2)ccc1O [Curcumin],Inhibition (percent decrease in macule area vs androgen-treated macules),hamster flank organ [6],87%
same,Pigmented macule area,hamster flank organ [6],2.40 ± 0.65 mm^2
same,Inhibition (percent decrease in macule area vs androgen-treated macules),"hamster flank organ [5]; 0.5 μg DHT + 1 mg compound topically daily, 18 days",31%
same,Pigmented macule area,"hamster flank organ [5]; 0.5 μg DHT + 1 mg compound topically daily, 18 days, mean±SEM",9.50 ± 0.21 mm^2
